{"source": "a melting point compilation (Tetko et al.)"}
{"units": {"melting point": "°C"}}
{"smiles": "O=C1CCCC2Cc3ccccc3C(=O)C12", "note": "(centres undefined)", "melting point": 79}
{"smiles": "O=C1C=C(NCCc2ccccc2)C(=O)c2ccccc21", "melting point": 141}
{"smiles": "COc1ccc(C(=O)O)cc1C", "melting point": "195 to 197"}
{"smiles": "COC(=O)C1(S(=O)(=O)c2ccccc2)CCCC1", "melting point": 56.5}
{"smiles": "S=C=Nc1c(Cl)c(Cl)cc(Cl)c1Cl", "melting point": "88 to 90"}
{"smiles": "Cc1cc(C)c(S(=O)(=O)n2ccnc2)c(C)c1", "melting point": "95 to 99"}
{"smiles": "COC(=O)c1sc(SC)nc1N", "melting point": 104}
{"smiles": "COc1ccc(C(=O)CC(=O)c2ccc(C(C)(C)C)cc2)cc1", "melting point": 83.5}
{"smiles": "O=C(c1ccc(Br)cc1)c1noc(-c2ccc([N+](=O)[O-])cc2)c1S(=O)(=O)c1ccccc1", "melting point": "200 to 202"}
{"smiles": "N#CCC(N)=S", "melting point": "113 to 119"}
{"smiles": "CC(Cl)CCl", "note": "(centres undefined)", "melting point": -100}
{"smiles": "C[C@H](C[C@H](I)C(C)(C)C)S(=O)(=O)c1ccccc1", "melting point": 74}
{"smiles": "COn1c(C)c(C(C)=O)c2c3nonc3ccc21", "melting point": "201 to 203"}
{"smiles": "CC12CC3CC(C)(C1)CC(C(=O)O)(C3)C2", "melting point": 101}
{"smiles": "CCCCOC(=O)C(C)O", "note": "(centres undefined)", "melting point": -28}
{"smiles": "CCCCC(C(N)=O)n1nnc2ccccc21", "note": "(centres undefined)", "melting point": 118}
{"smiles": "NCCCCCCC(=O)O", "melting point": 195}
{"smiles": "Nc1ccccc1SC(=O)c1ccccc1", "melting point": 105}
{"smiles": "Cc1ccc(-n2nc(C)cc2O)cc1", "melting point": "132 to 133"}
{"smiles": "O=C1C(C(O)c2ccc(Cl)cc2)C(C(F)(F)F)=NN1c1ccccc1", "note": "(centres undefined)", "melting point": 168}
{"smiles": "CN1N=C2c3ccccc3CCC2C1c1ccc(Cl)cc1", "note": "(centres undefined)", "melting point": "199 to 201"}
{"smiles": "COc1ccc2oc(C(=O)O)cc2c1", "melting point": "212 to 214"}
{"smiles": "O=[N+]([O-])c1ccc(-c2nnc3n2NC(c2ccccc2)S3)cc1", "note": "(centres undefined)", "melting point": 220}
{"smiles": "NCc1ccc2occc2c1", "melting point": "32 to 34"}
{"smiles": "O=C(Cl)c1cn(S(=O)(=O)c2ccccc2)c2ccccc12", "melting point": 144}
{"smiles": "CC12CCC(C(Cl)C1=O)C2(C)C", "note": "(centres undefined)", "melting point": 106}
{"smiles": "Cc1nnc(SCC2=C(C(=O)O)N3C(=O)C(NC(=O)Cn4cnnn4)C3SC2)s1", "note": "(centres undefined)", "melting point": 198}
{"smiles": "O=C(Br)c1ccccc1", "melting point": -24}
{"smiles": "C=C(C)C1CCC2(CO)CCC3(C)C(CCC4C5(C)CCC(O)C(C)(C)C5CCC43C)C12", "note": "(centres undefined)", "melting point": 250}
{"smiles": "COc1ccc2c(c1)c1c3n2CCN(C)C3=NCC1", "melting point": 164}
{"smiles": "O=C(Cl)c1ccc(-n2cccn2)cc1", "melting point": "127 to 128"}
{"smiles": "O=[N+]([O-])c1cc(F)cc(F)c1", "melting point": 17}
{"smiles": "O=C(C1=NN(c2ccccc2)C2C(=O)N(c3ccc([N+](=O)[O-])cc3)C(=O)C12)c1ccc(Br)cc1", "note": "(centres undefined)", "melting point": 151}
{"smiles": "OOC1CCCc2ccccc21", "note": "(centres undefined)", "melting point": 56}
{"smiles": "BrCC(CBr)=C(CBr)CBr", "melting point": "135 to 145"}
{"smiles": "COc1ccc(NC(=O)C(C)=O)cc1", "melting point": 127}
{"smiles": "O=C(O)c1ccc2c(c1)C(=O)c1ccccc1C2=O", "melting point": 291}
{"smiles": "CNC(=O)Oc1ccccc1C(C)C", "melting point": 94}
{"smiles": "Cc1ccc(S(=O)(=O)C2(C(=O)OC(C)C)CC2)cc1", "melting point": 65.5}
{"smiles": "Cn1nc(C(F)(F)F)c(C(=O)O)c1Cl", "melting point": "201 to 202"}
{"smiles": "O=S(=O)(CCSCCO)c1ccc(Cl)cc1", "melting point": "59 to 62"}
{"smiles": "Cc1nn(-c2ccccc2)nc1C(=O)NNC(=N)C(Cl)(Cl)Cl", "melting point": "197 to 198"}
{"smiles": "O=C(c1noc(-c2ccc(Cl)cc2)c1S(=O)(=O)c1ccccc1)c1cccc2ccccc12", "melting point": 169}
{"smiles": "C1CCCCCC2OC2CCCC1", "note": "(centres undefined)", "melting point": -7}
{"smiles": "O=C(O)c1ccccc1Nc1cccc(C(F)(F)F)c1", "melting point": 134}
{"smiles": "CC12CCC3C(CCC4CC(OC=O)CCC43C)C1CC=C2C#Cc1ccccc1", "note": "(centres undefined)", "melting point": "179 to 180"}
{"smiles": "N#Cc1cc(F)cc(Cl)c1", "melting point": 57}
{"smiles": "CCCCOc1ccc(/C=N/NC(=O)C(=O)N/N=C/c2ccc(OCCCC)cc2)cc1", "melting point": "301 to 303"}
{"smiles": "O=[N+]([O-])/C=C/c1cccc(/C=C/[N+](=O)[O-])c1", "melting point": "203 to 204"}
